Measured values published in patent US9771563B2, “Chemical approaches for generation of induced pluripotent stem cells” (The Scripps Research Institute, priority 2008, dated 2017).

Experiments:
[1] = system: MEFs (129, ROSA26+/-/OG2+/-); experiment: Reprogramming of MEFs transduced with Oct4/Sox2/Klf4 or Oct4/Klf4 with CHIR99021; format: cell-based, mouse
Description: Cell Culture and Viral Transduction: MEFs were derived from 129S2/SvPasCrlf and ROSA26^+/−/OG2^+/− mice according to the protocol reported on WiCell Research Institute website: “Introduction to human embryonic stem cell culture methods”. ROSA26^+/−/OG2^+/− heterozygous transgenic mice carry GFP reporter gene under the control of the Oct4 promoter (Oct4-GFP) and the ubiquitously expressed neo/lacZ transgene [Do J T, Scholer H R, Stem Cells, 22:941-949 (2004)]. Animal experiments were performed according to the Animal Protection Guidelines of the Max Planck Institute for Biomolecular Research, Germany. MEFs were transduced by Oct4, Klf4 and Sox2 three factors, or two-factor combinations of the pMXs-based retroviruses encoding mouse Oct4, Klf4 and Sox2 (Addgene) as previously described [Takahashi K, Yamanaka S, Cell, 126:663-676 (2006)]. […] MEFs transduced with Oct4/Klf4/Sox2 (lx 10^4 cells/well together with 10^5 cells/well CF1 feeders in 6-well plates) were then treated with GSK-3 inhibitor CHIR99021 (Stemgent) for two weeks, and EGFP positive colonies were picked up at the third week after treatment. MEFs transduced with Oct4/Klf4 (lx 10^5 cells/well in 6-well plates) were treated with 10 μM CHIR99021 for four weeks, GFP positive colonies were picked up and expanded at the fourth to fifth week after treatment.

mouse fibroblasts = experiment: Reprogramming of mouse fibroblasts with exogenous poly-Arg transcription factor proteins; format: cell-based; conditions: cells incubated with transcription factor proteins plus agent
Description: Mouse fibroblasts were grown in mESC medium supplemented with 8 μg/ml of either Oct4/Sox2/Klf4 or Oct4/Sox2/Klf4/Myc (all proteins comprising poly-Arg as described above) for 6-8 hours, washed, and incubated for 2-3 days in mESC media without the above-listed transcription factors. This (4-12 hours with, 1-3 days without) was repeated a number (1, 2, 3, 4, or more) of times and then the cells were cultured in mESC for two weeks.
Mouse fibroblasts were grown in mESC growth medium [Knockout DMEM (Invitrogen) supplemented with 10% ES-FBS+10% KSR, 0.1 mM 2-ME, 1% Glutamax, 1% Non-essential amino acids, 1% EmbryoMax ESC Qualified Nucleosides (Millipore), and 10^3 units/ml LIF (ESGRO, Chemicon International)] supplemented with 8 μg/ml of Oct4/Sox2/Klf4/Myc (all four transcription factors are tagged with poly-Arg […]; SEQ ID NO:2) for 4-12 hours, followed by culturing the cells in the absence of the Oct4/Sox2/Klf4/Myc polypeptides for one day. This procedure was repeated 4 times. The cells were then cultured in mESC medium for another two weeks. iPSC clones were detected by colony morphology and expression of pluripotency markers. An intermediate iPSC clone, which expresses ALP but not Oct4 (Oct4), was dissociated with Trypsin-EDTA. The clone was then expanded by continuous culturing with regular mESC medium or medium supplemented with 0.5 μM PD0325901, 3 μM CHIR99021, 0.5 μM A-83-01. The number of Oct4-positive colonies were counted 2 weeks after small molecule treatment (FIG. 14).

MEFs = experiment: Real-time PCR of pluripotency genes in untransduced MEFs after small molecule treatment; format: cell-based, mouse; conditions: 10 μM CHIR99021, three days
Description: To detect the expression of pluripotency genes by MEFs and NHEKs that were treated with small molecules, untransduced MEFs and NHEKs were treated for three days in mESC growth medium with 10 μM CHIR99021 or in hES cell medium with either combination of 10 μM CHIR99021 and 2 μM Parnate or combination of 10 μM CHIR99021, 2 μM Parnate, 0.5 μM PD0325901 and 2 μM SB431542. For the semi-quantitative and quantitative RT-PCR analyses, RNA was extracted from miPSCs-OK, hiPSCs-OK, MEFs, treated MEFs and treated NHEKs using the RNeasy Plus Mini Kit in combination with QIAshredder (Qiagene). Reverse transcription was performed with 1 μg RNA using iScript™ cDNA Synthesis Kit (BioRad). […] Real-time PCR was carried out using iQ SYBR Green Supermix (BioRad). […] The expression of genes of interest was normalized to that of GAPDH in all samples.

[2] = system: Normal Human Epidermal Keratinocytes (NHEKs); experiment: Reprogramming of lentivirally transduced NHEKs (TRA-1-81 colonies); format: cell-based; conditions: 0.25 mM NaB vs 0.5 mM VPA
Description: Among several readily available primary human somatic cell types, keratinocytes that can be easily isolated from human skin or hair follicle represent an attractive cell source for reprogramming, because they endogenously express Klf4 and cMyc, and were reported to be reprogrammed more efficiently using the conventional four TFs or three TFs (without Myc) (Aasen et al., Nat Biotechnol 26, 1276-1284 (2008); Maherali et al., Cell Stem Cell 3, 340-345 (2008)). […] Furthermore, we have shown that such dual pathway inhibition could also enhance reprogramming of human keratinocytes by two exogenous TFs (i.e. OK) with two small molecules, Parnate (an inhibitor of lysine-specific demethylase 1) and CHIR99021 (a GSK3 inhibitor) (Li et al., Stem Cells 27, 2992-3000 (2009)). However, such 2-TFs reprogramming process was very inefficient and complex (e.g. involving two exogenous TFs and four chemicals), and reprogramming with even one less TF appeared daunting. Toward this end, we developed a step-wise strategy in refining reprogramming condition and identifying new reprogramming chemical entities. […]

SMILES | GFP positive colonies out of 10^5 OG2 MEFs ([1]; Oct4/Klf4 transduction, 10 μM CHIR99021, 4-5 weeks) | reprogramming efficiency (GFP-positive colonies) ([1]; Oct4/Sox2/Klf4-transduced MEFs, about 10 μM, from 0.03-0.08% without) | number of AP-positive mESC-like colonies ([1]; Oct4/Sox2/Klf4 transduced MEFs, two weeks treatment, staining at third week) | efficiency and speed of development of pluripotent cells (mouse fibroblasts) | expression of Sox2 and Oct4 (real-time PCR) (MEFs) | generation of iPSCs under OK condition [2]
Cc1c[nH]c(-c2cnc(NCCNc3ccc(C#N)cn3)nc2-c2ccc(Cl)cc2Cl)n1 [CHIR99021] | about six | 0.2-0.4 % of transduced MEFs | significantly increased the number of alkaline phosphase (AP)-positive mESC-like colonies in a dose-dependent manner | improved efficiency and speed of development of pluripotent cells | did not induce the expression of Sox2 and Oct4 in MEFs | 
CCCC(=O)[O-].[Na+] [NaB, sodium butyrate] |  |  |  |  |  | much more reliable and efficient than the previously reported 0.5 mM VPA
